Measured values published in PubChem BioAssay (NCI).
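48-hour exposure; five concentrations; linearly interpolated endpoints. GI50: concentration for 50% inhibition of growth. TGI: total growth inhibition.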

Tests used:
Test in all cases: NCI anticancer screen, dose series, 48 h; in the data active means GI50 below about 0.43 µM; inactive means the rest
[1] = system: BT-549 breast
[2] = system: EKVX NSCLC
[3] = system: HOP-92 NSCLC
[4] = system: K-562 leukemia
[5] = system: HCT-15 colon
[6] = system: SK-MEL-28 melanoma
[7] = system: T-47D breast
[8] = system: NCI-H23 lung
[9] = system: M14 melanoma
[10] = system: NCI/ADR-RES ovarian
[11] = system: RPMI-8226 leukemia
[12] = system: HCT-116 colon
[13] = system: 786-0 renal
[14] = system: NCI-H522 lung
[15] = system: CAKI-1 renal
[16] = system: ACHN renal
[17] = system: A498 renal
[18] = system: MOLT-4 leukemia
[19] = system: OVCAR-4 ovarian
[20] = system: A549 NSCLC
[21] = system: OVCAR-8 ovarian
[22] = system: SR leukemia
[23] = system: SF-268 CNS
[24] = system: NCI-H226 lung
[25] = system: KM12 colon
[26] = system: SK-OV-3 ovarian
[27] = system: SF-295 CNS
[28] = system: MDA-MB-231 breast
[29] = system: HL-60(TB) leukemia
[30] = system: SNB-75 CNS
[31] = system: CCRF-CEM leukemia
[32] = system: MALME-3M melanoma
[33] = system: UACC-62 melanoma
[34] = system: DU-145 prostate
[35] = system: SF-539 CNS
[36] = system: UACC-257 melanoma
[37] = system: OVCAR-5 ovarian
[38] = system: UO-31 renal
[39] = system: IGROV1 ovarian
[40] = system: RXF 393 renal
[41] = system: MDA-MB-435
[42] = system: HS 578T breast
[43] = system: SNB-19 CNS
[44] = system: SK-MEL-5 melanoma
[45] = system: HT29 colon
[46] = system: COLO 205 colon
[47] = system: SK-MEL-2 melanoma
[48] = system: MCF7 breast
[49] = system: PC-3 prostate
[50] = system: SN12C renal
[51] = system: U251 CNS
[52] = system: TK-10 renal
[53] = system: HCC-2998 colon
[54] = system: HOP-62 NSCLC
[55] = system: NCI-H460 lung
[56] = system: LOX IMVI melanoma
[57] = system: SW-620 colon

Oc1ccc(CSc2nnc(-c3ccc(Oc4ccccc4)cc3)o2)c2cccnc12
84.6 µM: TGI [10]
5.88 µM: TGI [13]
active: GI50 [4] 0.368 µM | GI50 [5] 0.368 µM | GI50 [12] 0.42 µM | GI50 [22] 0.37 µM | GI50 [38] 0.373 µM | GI50 [43] 0.421 µM
90.2 µM: TGI [47]
8.01 µM: TGI [19]
2.7 µM: TGI [51]
55.5 µM: TGI [35]
4.4 µM: TGI [12]
7.49 µM: TGI [27]
2.14 µM: TGI [16]
69.8 µM: TGI [52]
9.85 µM: TGI [54]
> 100 µM: TGI [1] | TGI [2] | TGI [4] | TGI [5] | TGI [6] | TGI [9] | TGI [11] | TGI [14] | TGI [15] | TGI [17] | TGI [18] | TGI [20] | TGI [21] | TGI [22] | TGI [23] | TGI [24] | TGI [25] | TGI [29] | TGI [31] | TGI [32] | TGI [33] | TGI [34] | TGI [36] | TGI [37] | TGI [39] | TGI [40] | TGI [41] | TGI [43] | TGI [44] | TGI [45] | TGI [46] | TGI [48] | TGI [49] | TGI [50] | TGI [53]
inactive: GI50 [1] 0.905 µM | GI50 [2] 0.515 µM | GI50 [3] 1.41 µM | GI50 [6] 4.8 µM | GI50 [7] 2.17 µM | GI50 [8] 0.739 µM | GI50 [9] 0.621 µM | GI50 [10] 0.489 µM | GI50 [11] 0.458 µM | GI50 [13] 1.02 µM | GI50 [14] 4.99 µM | GI50 [15] 1.88 µM | GI50 [16] 0.565 µM | GI50 [17] 8.41 µM | GI50 [18] 1.28 µM | GI50 [19] 1.77 µM | GI50 [20] 1.68 µM | GI50 [21] 0.633 µM | GI50 [23] 0.659 µM | GI50 [24] 15.3 µM | GI50 [25] 2.65 µM | GI50 [26] 1.92 µM | GI50 [27] 0.877 µM | GI50 [28] 1.49 µM | GI50 [29] 0.668 µM | GI50 [30] 0.595 µM | GI50 [31] 0.498 µM | GI50 [32] 4.54 µM | GI50 [33] 2.41 µM | GI50 [34] 3.27 µM | GI50 [35] 0.689 µM | GI50 [36] 15.7 µM | GI50 [37] 8.02 µM | GI50 [39] 0.645 µM | GI50 [40] 3.55 µM | GI50 [41] 0.713 µM | GI50 [42] 0.612 µM | GI50 [44] 1.27 µM | GI50 [45] > 100 µM | GI50 [46] > 100 µM | GI50 [47] 3.56 µM | GI50 [48] 0.497 µM | GI50 [49] 0.561 µM | GI50 [50] 2.13 µM | GI50 [51] 0.46 µM | GI50 [52] 2.45 µM | GI50 [53] 1.04 µM | GI50 [54] 0.682 µM
2.38 µM: TGI [38]
44.9 µM: TGI [8]
9.12 µM: TGI [7]
3.92 µM: TGI [30]
24.9 µM: TGI [3]
27.4 µM: TGI [42]
21.8 µM: TGI [26]
79.9 µM: TGI [28]

Oc1ccc(CSc2nnc(-c3ccccc3)n2-c2ccccc2)c2cccnc12
> 33.3 µM: TGI [20]
11.7 µM: TGI [17]
inactive: GI50 [1] 0.59 µM | GI50 [2] 0.771 µM | GI50 [6] 0.614 µM | GI50 [7] 0.625 µM | GI50 [8] 0.541 µM | GI50 [11] 0.448 µM | GI50 [13] 0.923 µM | GI50 [15] 0.559 µM | GI50 [17] 1.52 µM | GI50 [18] 0.48 µM | GI50 [19] 0.706 µM | GI50 [20] 0.644 µM | GI50 [23] 0.519 µM | GI50 [24] 1.9 µM | GI50 [25] 0.534 µM | GI50 [26] 0.481 µM | GI50 [28] 0.62 µM | GI50 [30] 0.673 µM | GI50 [32] 1.15 µM | GI50 [33] 0.713 µM | GI50 [34] 0.605 µM | GI50 [35] 0.427 µM | GI50 [56] 0.485 µM | GI50 [36] 0.811 µM | GI50 [37] 2.88 µM | GI50 [39] 0.557 µM | GI50 [40] 0.887 µM | GI50 [41] 0.439 µM | GI50 [42] 0.433 µM | GI50 [44] 0.522 µM | GI50 [45] 3.96 µM | GI50 [46] 4.79 µM | GI50 [47] 0.621 µM | GI50 [49] 0.44 µM | GI50 [52] 0.514 µM | GI50 [53] 0.728 µM | GI50 [57] 0.443 µM | GI50 [54] 0.449 µM
3.27 µM: TGI [35]
3.47 µM: TGI [55]
6.09 µM: TGI [47]
2.44 µM: TGI [9]
1.29 µM: TGI [16]
0.787 µM: TGI [3]
2.34 µM: TGI [10]
11.4 µM: TGI [28]
3.22 µM: TGI [44]
4.32 µM: TGI [7]
4.87 µM: TGI [12]
> 22.8 µM: TGI [21]
> 79.2 µM: TGI [24]
21.1 µM: TGI [23]
> 47.7 µM: TGI [49]
13 µM: TGI [19] | TGI [39]
5.15 µM: TGI [30]
> 43.4 µM: TGI [31]
6.12 µM: TGI [40]
6.81 µM: TGI [26]
22.2 µM: TGI [34]
11 µM: TGI [8]
active: GI50 [3] 0.227 µM | GI50 [4] 0.403 µM | GI50 [5] 0.348 µM | GI50 [9] 0.405 µM | GI50 [10] 0.285 µM | GI50 [12] 0.362 µM | GI50 [14] 0.402 µM | GI50 [16] 0.364 µM | GI50 [21] 0.377 µM | GI50 [22] 0.404 µM | GI50 [27] 0.406 µM | GI50 [29] 0.376 µM | GI50 [31] 0.396 µM | GI50 [55] 0.351 µM | GI50 [38] 0.315 µM | GI50 [43] 0.395 µM | GI50 [48] 0.348 µM | GI50 [50] 0.416 µM | GI50 [51] 0.298 µM
6.4 µM: TGI [2]
3.63 µM: TGI [33]
7.91 µM: TGI [54]
6.65 µM: TGI [36]
> 70.2 µM: TGI [48]
55.2 µM: TGI [6]
4.28 µM: TGI [27]
> 39.7 µM: TGI [4]
14.2 µM: TGI [43]
> 100 µM: TGI [5] | TGI [11] | TGI [18] | TGI [22] | TGI [25] | TGI [37] | TGI [41] | TGI [45] | TGI [46] | TGI [53] | TGI [57]
1.56 µM: TGI [38]
7.19 µM: TGI [14]
12.1 µM: TGI [42]
3.44 µM: TGI [15]
25.4 µM: TGI [50]
5.09 µM: TGI [13]
4.67 µM: TGI [52]
9.46 µM: TGI [51]
6.91 µM: TGI [29]
6.19 µM: TGI [32]
2.82 µM: TGI [56]
> 26 µM: TGI [1]
